Laboratory results: patent publication US5837548A, “Treatment of inflammation by inhibition of lipid body formation” (Beth Israel Hospital, priority 1995, dated 1998)
Structures can show the parent of a compound that is named as a salt. Where two headings read alike, the source gives them in different places.

Experiments:
human neutrophils [1] = conditions: cited from earlier work
human eosinophils = conditions: receptor-mediated; cited from earlier work
human neutrophils [2] = experiment: cis-unsaturated fatty acid-induced lipid body formation in human neutrophils (osmium staining, light microscopy enumeration); assay type: cell-based; conditions: for inhibition at 1 µM / inhibition at 10 µM / inhibition at 5 µM / inhibition at 0.5 µM / inhibition at 1 µg/mL / inhibition at 10 µg/mL: Homo sapiens, Neutrophil, basal subtracted; for inhibition at 1 µM / inhibition at 10 µM: read-out: % inhibition; for inhibition of arachidonic acid-induced lipid body formation / inhibition of oleic acid-induced lipid body formation: human neutrophils, staurosporine 0.1-1.0 μM, aspirin 10 μg/mL, others as in Tables 1 and 2; for inhibition at 1 µg/mL / inhibition at 10 µg/mL: 1 h
Experimental: Neutrophils were purified from fresh human blood obtained by venipuncture from healthy adult volunteers and collected into acidified citrate. After addition of 6% dextran 70 (McGaw, Irvine, Calif.), RBCs were allowed to sediment for 1 hour at room temperature. The leukocyte-rich supernatant was overlaid onto an equal volume of Ficoll-Paque gradient (Piscataway, N.J.), and centrifuged at 400×g for 20 min. […] Residual RBCs were lysed with hypotonic saline.
Human leukocytes (10^6 cells/mL) were incubated with varying concentrations of arachidonic acid (AA), oleic acid (OA) or vehicle at 37° C. in a 5% CO2 /95% O2 atmosphere, and after 1 hour leukocytes (10^5 cells per slide) were cytocentrifuged (550 rpm, 5 min) onto glass slides. During inhibitory studies, neutrophils were pretreated for 1 hour with varying concentrations of enzyme inhibitors, protein synthesis inhibitors, or vehicle as indicated. When PKC inhibitors were used, the pre-incubation time was reduced to 30 minutes to avoid toxic effects to the cells. […] Stock solutions for A23187, D609, U-73122, and indomethacin were prepared in DMSO and stored at -20° C. Aliquots were diluted in Ca^++ /Mg^++ fee HBSS to the indicated concentration immediately prior to use. […] The morphology of fixed cells was observed, and lipid bodies were enumerated with phase contrast microscopy and a 100× objective lens in 50 consecutively scanned leukocytes.
Results were expressed as mean±SEM and were analyzed statistically by means of the analysis of variance followed by the Newman-Keuls-Student test with the level of significance set at p<0.05. Correlation coefficients were determined by linear regression, and correlation analysis was performed by Fisher's r to z transformation with the level of significance set at p<0.05.
^1 Neutrophils (10^6 /ml) were pretreated with protein kinase C
(actinomycin D, cycloheximide) for 30 min or with phospholipase C
inhibitors (D609, U73122) for 1 h. The cells were then stimulated with
vehicle, arachidonic acid (15 μM), or oleic acid (10 μM), for 1 h.
Results are mean ± SEM from fifty consecutively counted neutrophils.
Statistically significant differences between the agonist alone and the
inhibitor are represented by an asterisk(*). Percent inhibition has been
calculated after subtracting out the basal number of lipid bodies/PMN
present prior to stimulation.
^1 Neutrophils (10^6 /ml) were pretreated with the NSAID or
vehicle for 1 h then stimulated with vehicle, arachidonic acid, or oleic
± SEM from fifty consecutively counted neutrophils. Statistically
significant differences between the agonist alone and the NSAID are
represented by an asterisk (*). Percent inhibition has been calculated
after subtracting out the basal number of lipid bodies/PMN present prior

[3] = tested on: peritoneal macrophages from wild type mice; experiment: lipid body formation in peritoneal macrophages from wild type mice; assay type: cell-based, mouse; conditions: for % inhibition / lipid bodies (mean ± SEM)/macrophage: wild type, AA 15 μM; for inhibition of lipid body formation in macrophages: wild-type mice, 10 μg/mL
Experimental: (§1) FIG. 4 is a graph illustrating the effects of arachidonic acid and oleic acid on lipid body formation in peritoneal macrophages from wild type (+/+) and cyclooxygenase-1 knockout (-/-) mice. The agonists AA and OA are represented by the square and circle symbols, respectively. The closed symbols represent the wild type mice; the open symbols represent the cyclooxygenase-1 knockout mice. Macrophages (10^6 /mL) were incubated with the agonists AA and OA at varying concentrations for an hour. Lipid bodies were enumerated using light microscopy following osmium staining. Each point represents the mean±SEM from fifty consecutively scanned macrophages.
(§2) Cyclooxygenase-1 and cyclooxygenase-2 knockout mice were generated as recently described (Morham et al., Cell 83:473-482 (1995); Langenbach et al., Cell 83:483-492 (1995)). All experiments were carried out with male 8-12 week old mice. Macrophages from cyclooxygenase genetically deficient mice and wild-type litter mates were obtained by lavaging the peritoneal cavity with 5 mL of cold RPMI containing heparin (20 IU/mL).
(§3) ^1 Peritoneal macrophages from wild type and COX 1 knockout mice were
(§4) pretreated with the NSAID or vehicle for 1h and then stimulated with
(§5) arachidonic acid (AA, 15 μM) or vehicle for 1h. Results are mean ±
(§6) SEM from fifty consecutively counted macrophages. The statistically

[4] = tested on: peritoneal macrophages from COX 1 knockout mice; experiment: lipid body formation in peritoneal macrophages from cyclooxygenase-1 knockout mice; assay type: cell-based, mouse; conditions: for % inhibition / lipid bodies (mean ± SEM)/macrophage: COX 1 knockout, AA 15 μM; for inhibition of lipid body formation in macrophages: cyclooxygenase-1-deficient mice, 10 μg/mL
Experimental: as §1, §2, §3, §4, §5, §6

[5] = tested on: neutrophils (arachidonic acid uptake); experiment: 14C-arachidonic acid uptake in arachidonic acid-stimulated neutrophils; assay type: cell-based, human; conditions: for inhibition of 14C-arachidonic acid uptake: arachidonic acid-stimulated cells, aspirin 10 μg/mL, sodium salicylate 10 μg/mL, indomethacin 1 μg/mL; for 14C-AA uptake: stimulus arachidonate 15 μM, drug 1 μg/ml (table footnote)
Experimental: Neutrophils (10^6 /mL) were labeled with ^14 C-arachidonic acid (0.01 μCi/sample) together with either vehicle, aspirin (10 μg/mL), indomethacin (1 μg/mL) or sodium salicylate (10 μg/mL) for 1 hour. After the incubation period, lipid body formation was elicited by arachidonic acid (15 μM). The cells were washed 3 times in Ca^++ /Mg^++ free HBSS and analysis of incorporated ^14 C-arachidonic acid in the cell pellet was performed by liquid scintillation counting.
^1 The cells were pretreated with ^14 Carachidonic acid (0.01
μCi/sample) plus vehicle, aspirin (10 μg/ml) , sodium salicylate (1
μg/ml) or indomethacin (1 μg/ml) 1 h before the incubation with
arachidonic acid (15 μM). Cells were washed 3 times before the analysi
of incorporated ^14 Carachidonic acid. Results are representative of
independent experiments.

[6] = arachidonic acid 15 μM, inhibitor 1 μM
[7] = arachidonic acid 15 μM, inhibitor 10 μM
[8] = oleic acid 10 μM, inhibitor 1 μM
[9] = oleic acid 10 μM, inhibitor 10 μM
[10] = oleic acid 10 μM, NSAID 10 μg/ml, 1 h pretreatment
[11] = arachidonic acid 15 μM, NSAID 10 μg/ml, 1 h pretreatment
[12] = arachidonic acid 15 μM, inhibitor 5 μM
[13] = oleic acid 10 μM, inhibitor 5 μM
[14] = arachidonic acid 15 μM, inhibitor 0.5 μM
[15] = oleic acid 10 μM, inhibitor 0.5 μM
[16] = arachidonic acid 15 μM, NSAID 1 μg/ml, 1 h pretreatment
[17] = oleic acid 10 μM, NSAID 1 μg/ml, 1 h pretreatment

CCCCCCCC/C=C\CCCCCCCC(=O)OCC(CO)OC(C)=O (racemic)
induction of lipid body formation (human neutrophils [1]): induce lipid body formation

CCCCCC=CCC=CCC=CC=CC(O)CCCC(=O)O (stereo not drawn) [5-HETE, 5-hydroxy-6,8,11,14-eicosatetraenoic acid]
induction of lipid body formation (human neutrophils [1]): elicit lipid body formation | induction of lipid body formation (human eosinophils): elicit lipid body formation

CCCCC/C=C\C[C@H](O)/C=C/C=C\C/C=C\CCCC(=O)O [12-HETE]
induction of lipid body formation (human neutrophils [1]): elicit lipid body formation | induction of lipid body formation (human eosinophils): elicit lipid body formation

CCCCC[C@H](O)/C=C/C=C\C/C=C\C/C=C\CCCC(=O)O [15-HETE]
induction of lipid body formation (human neutrophils [1]): elicit lipid body formation | induction of lipid body formation (human eosinophils): elicit lipid body formation

S=C(S)OC1CC2CC1C1CCCC21 (stereo not drawn) [D609]
inhibition at 1 µM (human neutrophils [2]; [6]): 48% | inhibition at 10 µM (human neutrophils [2]; [7]): 84% | inhibition at 1 µM (human neutrophils [2]; [8]): 19% | inhibition at 10 µM (human neutrophils [2]; [9]): 46% | lipid bodies (mean ± SEM)/cell (human neutrophils [2]; [6]): 6.5 ± 0.2 lipid bodies/cell | lipid bodies (mean ± SEM)/cell (human neutrophils [2]; [7]): 5.2 ± 0.2 lipid bodies/cell | lipid bodies (mean ± SEM)/cell (human neutrophils [2]; [8]): 9.4 ± 0.3 lipid bodies/cell | lipid bodies (mean ± SEM)/cell (human neutrophils [2]; [9]): 7.8 ± 0.2 lipid bodies/cell

O=C(O)c1ccccc1O [Na salicylate, salicylic acid (sodium salt)]
inhibition at 10 µM (human neutrophils [2]; [10]): 53% | lipid bodies (mean ± SEM) PMN (human neutrophils [2]; [11]): 7.9 ± 0.4 lipid bodies/PMN | inhibition of arachidonic acid-induced lipid body formation (human neutrophils [2]): significantly inhibited | inhibition of oleic acid-induced lipid body formation (human neutrophils [2]): significantly inhibited | lipid bodies (mean ± SEM) PMN (human neutrophils [2]; [10]): 10.1 ± 0.4 lipid bodies/PMN | % inhibition ([3]; NSAID 10 μg/ml): 45% | lipid bodies (mean ± SEM)/macrophage ([3]; NSAID 10 μg/ml): 5.0 ± 0.3 lipid bodies/macrophage | inhibition of lipid body formation in macrophages [3]: significantly inhibited | % inhibition ([4]; NSAID 10 μg/ml): 66% | lipid bodies (mean ± SEM)/macrophage ([4]; NSAID 10 μg/ml): 4.0 ± 0.4 lipid bodies/macrophage | inhibition of lipid body formation in macrophages [4]: significantly inhibited | inhibition of 14C-arachidonic acid uptake [5]: failed to inhibit | 14C-AA uptake [5]: 7292 cpm

COc1ccc2c(c1)CC[C@@H]1[C@@H]2CC[C@]2(C)[C@@H](NCCCCCCN3C(=O)C=CC3=O)CC[C@@H]12 [U-73122]
inhibition at 1 µM (human neutrophils [2]; [6]): 45% | inhibition at 5 µM (human neutrophils [2]; [12]): 85% | inhibition at 1 µM (human neutrophils [2]; [8]): 8% | inhibition at 5 µM (human neutrophils [2]; [13]): 24% | lipid bodies (mean ± SEM)/cell (human neutrophils [2]; [6]): 6.6 ± 0.2 lipid bodies/cell | lipid bodies (mean ± SEM)/cell (human neutrophils [2]; [12]): 4.9 ± 0.2 lipid bodies/cell | lipid bodies (mean ± SEM)/cell (human neutrophils [2]; [8]): 19.3 ± 0.4 lipid bodies/cell | lipid bodies (mean ± SEM)/cell (human neutrophils [2]; [13]): 16.9 ± 0.4 lipid bodies/cell

COc1ccc2c(c[n+](C)c3c4cc5c(cc4ccc23)OCO5)c1OC [chelerythrine]
inhibition at 0.5 µM (human neutrophils [2]; [14]): 50% | inhibition at 1 µM (human neutrophils [2]; [6]): 90% | inhibition at 0.5 µM (human neutrophils [2]; [15]): 25% | inhibition at 1 µM (human neutrophils [2]; [8]): 71% | lipid bodies (mean ± SEM)/cell (human neutrophils [2]; [14]): 7.5 ± 0.3 lipid bodies/cell | lipid bodies (mean ± SEM)/cell (human neutrophils [2]; [6]): 5.1 ± 0.3 lipid bodies/cell | lipid bodies (mean ± SEM)/cell (human neutrophils [2]; [15]): 7.5 ± 0.2 lipid bodies/cell | lipid bodies (mean ± SEM)/cell (human neutrophils [2]; [8]): 5.8 ± 0.3 lipid bodies/cell

COc1ccc2c(c1)c(CC(=O)O)c(C)n2C(=O)c1ccc(Cl)cc1 [indomethacin]
inhibition at 1 µg/mL (human neutrophils [2]; [16]): 63% | inhibition at 1 µg/mL (human neutrophils [2]; [17]): 61% | lipid bodies (mean ± SEM) PMN (human neutrophils [2]; [16]): 7.0 ± 0.5 lipid bodies/PMN | inhibition of arachidonic acid-induced lipid body formation (human neutrophils [2]): significantly inhibited | inhibition of oleic acid-induced lipid body formation (human neutrophils [2]): significantly inhibited | lipid bodies (mean ± SEM) PMN (human neutrophils [2]; [17]): 9.1 ± 0.5 lipid bodies/PMN | % inhibition ([3]; NSAID 1 μg/ml): 61% | lipid bodies (mean ± SEM)/macrophage ([3]; NSAID 1 μg/ml): 4.4 ± 0.3 lipid bodies/macrophage | inhibition of lipid body formation in macrophages [3]: significantly inhibited | % inhibition ([4]; NSAID 1 μg/ml): 48% | lipid bodies (mean ± SEM)/macrophage ([4]; NSAID 1 μg/ml): 4.8 ± 0.4 lipid bodies/macrophage | inhibition of lipid body formation in macrophages [4]: significantly inhibited | inhibition of 14C-arachidonic acid uptake [5]: failed to inhibit | 14C-AA uptake [5]: 7095 cpm

CCCCCCCCCCCCCC(=O)O[C@@H]1[C@@H](C)[C@@]2(O)[C@@H](C=C(CO)C[C@]3(O)C(=O)C(C)=C[C@@H]23)[C@@H]2C(C)(C)[C@]12OC(C)=O [phorbol-12-myristate-13-acetate]
induction of lipid body formation (human neutrophils [1]): induce lipid body formation

CN1C(C(=O)Nc2ccccn2)=C(O)c2ccccc2S1(=O)=O [piroxicam]
inhibition at 10 µg/mL (human neutrophils [2]; [11]): 61% | inhibition at 10 µg/mL (human neutrophils [2]; [10]): 50% | lipid bodies (mean ± SEM) PMN (human neutrophils [2]; [11]): 7.2 ± 0.4 lipid bodies/PMN | inhibition of arachidonic acid-induced lipid body formation (human neutrophils [2]): significantly inhibited | inhibition of oleic acid-induced lipid body formation (human neutrophils [2]): significantly inhibited | lipid bodies (mean ± SEM) PMN (human neutrophils [2]; [10]): 10.4 ± 0.4 lipid bodies/PMN

CCCCCCCCCCCCCCCCOCC(COP(=O)([O-])OCC[N+](C)(C)C)OC(C)=O (stereo not drawn) [platelet activating factor]
induction of lipid body formation (human neutrophils [1]): Lipid body formation is also induced | induction of lipid body formation (human neutrophils [1]; listed as PAF): elicit lipid body formation | induction of lipid body formation (human eosinophils): elicit lipid body formation

CN[C@@H]1C[C@H]2O[C@@](C)([C@@H]1OC)n1c3ccccc3c3c4c(c5c6ccccc6n2c5c31)C(=O)NC4 [staurosporine]
lipid bodies (mean ± SEM)/cell (human neutrophils [2]; arachidonic acid 15 μM, inhibitor 0.1 μM): 6.1 ± 0.3 lipid bodies/cell | lipid bodies (mean ± SEM)/cell (human neutrophils [2]; [6]): 5.1 ± 0.2 lipid bodies/cell | lipid bodies (mean ± SEM)/cell (human neutrophils [2]; oleic acid 10 μM, inhibitor 0.1 μM): 8.3 ± 0.3 lipid bodies/cell | lipid bodies (mean ± SEM)/cell (human neutrophils [2]; [8]): 7.7 ± 0.3 lipid bodies/cell
